One assay concerns Bacillus subtilis 168CA. As to the kind of experiment: Minimum Inhibitory Concentration (MIC) testing, broth microdilution, Bacillus subtilis. Particulars: Bacillus subtilis 168CA; read-out: Bacillus subtilis MICs Activity. It counts as cell-based. The method in brief: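 Broth microdilution followed NCCLS M7-A5, in rich broth such as Mueller Hinton, inoculum at OD 0.09 diluted 1:100, compounds in 1.6% DMSO before inoculum. After 16–20 h at 37 °C, MIC was the lowest concentration without visible growth. Score A: ≦8 μg/ml, B: 16–64 μg/ml, C: >64 μg/ml.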
For orientation: In broth dilution the organism is exposed to a series of concentrations in liquid medium.

Assay [1] relates to Staphylococcus aureus ATCC29213. The experiment in a line: Minimum Inhibitory Concentration (MIC) testing, broth microdilution, Staphylococcus aureus. It is filed as cell-based. The settings on record: Staphylococcus aureus ATCC29213; read-out: Staphylococcus aureus MICs Activity. The method in brief:
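Broth microdilution per NCCLS M7-A5 in Mueller Hinton broth, with compound in 1.6% DMSO and inoculum at OD 0.09 diluted 1:100. Plates incubated 16–20 h at 37°C. MIC is the lowest concentration with no visible growth; scored A ≤8, B 16–64, C >64 μg/ml.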

Converted amounts (≈) assume the structure as drawn.

Turning to `NC(=O)c1c(F)ccc(OCc2csc(-c3ccc(OC(F)(F)F)cc3)n2)c1F` [Example 307, 2,6-Difluoro-3-[2-(4-trifluoromethoxy-phenyl)-thiazol-4-ylmethoxy]-benzamide], the MIC (in the assay on Bacillus subtilis 168CA; in assay [1]) was less than 8 µg/mL throughout.

For the molecule `NC(=O)c1c(F)ccc(OCc2cccc(Cl)c2)c1F` [Example 331, 3-(3-Chloro-benzyloxy)-2,6-difluoro-benzamide], the figures for the MIC (with Bacillus subtilis 168CA; in assay [1]) were less than 8 µg/mL and 16 to 64 µg/mL (≈ 53.7 to 215 µM), respectively.

For `CCC(C)CCOc1cccc(C(N)=O)c1` (stereo not shown) [Example 60, 3-[(3-Methylpentyl)oxy]benzenecarboxamide], the MIC (with Bacillus subtilis 168CA; in assay [1]) was 16 to 64 µg/mL (≈ 72.3 to 289 µM) throughout.

As to `Cc1ccc2oc(COc3ccc(F)c(C(N)=O)c3F)nc2c1` [Example 212, 2,6-Difluoro-3-[(5-methyl-1,3-benzoxazol-2-yl)methoxy]benzenecarboxamide], the MIC in the assay on Bacillus subtilis 168CA was less than 8 µg/mL; in assay [1] it was 16 to 64 µg/mL (≈ 50.3 to 201 µM).

Regarding `COC(=O)c1sc(COc2ccc(F)c(C(N)=O)c2F)nc1-c1ccc(OC)cc1` [Example 313, 2-(3-Carbamoyl-2,4-difluoro-phenoxymethyl)-4-(4-methoxy-phenyl)-thiazole-5-carboxylic acid methyl ester], the MIC (in the assay on Bacillus subtilis 168CA; in assay [1]) was less than 8 µg/mL each time.

For the molecule `NC(=O)c1c(F)ccc(OCc2nc(-c3cccs3)no2)c1F` [Example 153, 2,6-Difluoro-3-(3-thiophen-2-yl-[1,2,4]oxadiazol-5-ylmethoxy)-benzamide], the MIC (with Bacillus subtilis 168CA; in assay [1]) was less than 8 µg/mL in each case.

Turning to `NC(=O)c1cccc(OCc2nc3cc(Cl)ccc3s2)c1F` [Example 219, 3-[(5-Chloro-1,3-benzothiazol-2-yl)methoxy]-2-fluorobenzenecarboxamide], the MIC (with Bacillus subtilis 168CA; in assay [1]) was less than 8 µg/mL each time.

Regarding `NC(=O)c1c(F)ccc(OCc2nc(-c3ccc(F)cc3)cs2)c1F` [Example 318, 2,6-Difluoro-3-[4-(4-fluoro-phenyl)-thiazol-2-ylmethoxy]-benzamide], the MIC (with Bacillus subtilis 168CA; in assay [1]) was less than 8 µg/mL each time.

For `COc1ccc(-c2nc(COc3ccc(F)c(C(N)=O)c3F)sc2C2CC2)cc1` [Example 286, 3-[5-Cyclopropyl-4-(4-methoxy-phenyl)-thiazol-2-ylmethoxy]-2,6-difluoro-benzamide], the MIC (in the assay with Bacillus subtilis 168CA; in assay [1]) was less than 8 µg/mL in each case.

Take `Cl.NC(=O)c1c(F)ccc(OCc2nc(-c3ccc(N)cc3)no2)c1F` [Example 251, 3-[3-(4-Aminophenyl)-1,2,4-oxadiazol-5-yl]methoxy-2,6-difluorobenzenecarboxamide hydrochloride salt]: the MIC (in the assay with Bacillus subtilis 168CA; in assay [1]) was 16 to 64 µg/mL throughout.

For `Cc1ccc(-c2nc(CCOc3ccc(F)c(C(N)=O)c3F)c(C)o2)cc1` [Example 333, 2,6-Difluoro-3-[2-(5-methyl-2-p-tolyl-oxazol-4-yl)-ethoxy]-benzamide], the MIC (in the assay on Bacillus subtilis 168CA; in assay [1]) was less than 8 µg/mL in each case.

In the case of `CCCCC#CCCCOc1cccc(C(N)=O)c1` [Example 32, 3-(4-Nonynyloxy)benzenecarboxamide], the MIC in the assay with Bacillus subtilis 168CA is less than 8 µg/mL; in assay [1], 16 to 64 µg/mL (≈ 61.7 to 247 µM).

Turning to `COc1ccc(-c2nc(COc3ccc(F)c(C(N)=O)c3F)sc2Br)cc1` [Example 158, 3-[5-Bromo-4-(4-methoxy-phenyl)-thiazol-2-ylmethoxy]-2,6-difluoro-benzamide], the MIC (in the assay with Bacillus subtilis 168CA; in assay [1]) was less than 8 µg/mL in each case.

`NC(=O)c1c(F)ccc(OCc2csc(-c3ccccc3)n2)c1F` [Example 233, 2,6-Difluoro-3-[(2-phenyl-1,3-thiazol-4-yl)methoxy]benzenecarboxamide]: the MIC (with Bacillus subtilis 168CA; in assay [1]) was less than 8 µg/mL in each case.

For the molecule `NC(=O)c1c(F)ccc(OCc2nc(-c3ccccc3)cs2)c1F` [Example 235, 2,6-Difluoro-3-[(4-phenyl-1,3-thiazol-2-yl)methoxy]benzenecarboxamide], the MIC (in the assay with Bacillus subtilis 168CA; in assay [1]) was less than 8 µg/mL in each case.

For `COc1ccc(-c2nc(COc3ccc(F)c(C(N)=O)c3F)c(C)o2)cc1` [Example 296, 2,6-Difluoro-3-[2-(4-methoxy-phenyl)-5-methyl-oxazol-4-ylmethoxy]-benzamide], the MIC (in the assay on Bacillus subtilis 168CA; in assay [1]) was less than 8 µg/mL in each case.

For the molecule `NC(=O)c1c(F)ccc(OCc2nc(-c3cccc(O)c3)no2)c1F` [Example 257, 2,6-Difluoro-3-[3-(3-hydroxyphenyl)-1,2,4-oxadiazol-5-yl]methoxybenzenecarboxamide], the MIC (in the assay on Bacillus subtilis 168CA; in assay [1]) was less than 8 µg/mL each time.

`NC(=O)c1c(F)ccc(OCc2nc(-c3ccccc3)co2)c1F` [Example 310, 2,6-Difluoro-3-(4-phenyl-oxazol-2-ylmethoxy)-benzamide]: the figures for the MIC (with Bacillus subtilis 168CA; in assay [1]) were less than 8 µg/mL and 16 to 64 µg/mL (≈ 48.4 to 194 µM), respectively.

Turning to `CCCc1sc(COc2ccc(F)c(C(N)=O)c2F)nc1-c1ccc(OC)cc1` [Example 118, 2,6-Difluoro-3-[4-(4-methoxy-phenyl)-5-propyl-thiazol-2-ylmethoxy]-benzamide], the MIC (in the assay with Bacillus subtilis 168CA; in assay [1]) was less than 8 µg/mL throughout.

As to `NC(=O)c1cccc(OCCCCO)c1` [Example 42, 3-(4-Hydroxybutoxy)benzenecarboxamide], the MIC (in the assay with Bacillus subtilis 168CA; in assay [1]) was 16 to 64 µg/mL (≈ 76.5 to 306 µM) each time.

For the molecule `C#CCCCCCCCCCOc1ccc(Cl)c(C(N)=O)c1` [Example 69, 2-Chloro-5-(10-undecynyloxy)benzenecarboxamide], the MIC (in the assay on Bacillus subtilis 168CA; in assay [1]) was less than 8 µg/mL each time.

On to `CC/C=C\CC/C=C/COc1cccc(C(N)=O)c1` [Example 56, 3-[(2E,6Z)-2,6-Nonadienyloxy]benzenecarboxamide], for which the MIC (in the assay with Bacillus subtilis 168CA; in assay [1]) was less than 8 µg/mL each time.

For `NC(=O)c1c(F)ccc(OCc2ccco2)c1F` [Example 183, 2,6-Difluoro-3-(2-furylmethoxy)benzenecarboxamide], the MIC (in the assay with Bacillus subtilis 168CA; in assay [1]) was 16 to 64 µg/mL (≈ 63.2 to 253 µM) each time.

For `NC(=O)c1c(F)ccc(OCc2nc(Cc3ccccc3)no2)c1F` [Example 266, 3-[(3-Benzyl-1,2,4-oxadiazol-5-yl)methoxy]-2,6-difluorobenzenecarboxamide], the MIC (with Bacillus subtilis 168CA; in assay [1]) was 16 to 64 µg/mL (≈ 46.3 to 185 µM) throughout.

Turning to `CCC1CC1CCCCOc1cccc(C(N)=O)c1` (stereo not shown) [Example 91, 3-[4-(2-Ethylcyclopropyl)butoxy]benzenecarboxamide], the MIC (in the assay on Bacillus subtilis 168CA; in assay [1]) was less than 8 µg/mL each time.

As to `NC(=O)c1cccc(OCCCCCCc2ccccc2)c1` [Example 36, 3-[(6-Phenylhexyl)oxy]benzenecarboxamide], the MIC was less than 8 µg/mL in the assay with Bacillus subtilis 168CA and more than 64 µg/mL in assay [1].

In the case of `CC(C)(C)c1ccc(-c2noc(COc3ccc(F)c(C(N)=O)c3F)n2)cc1` [Example 249, 3-(3-[4-(tert-Butyl)phenyl]-1,2,4-oxadiazol-5-ylmethoxy)-2,6-difluorobenzenecarboxamide], the MIC (in the assay on Bacillus subtilis 168CA; in assay [1]) was less than 8 µg/mL in each case.

Take `CCCCCCCCCOc1ccc(F)c(C(N)=O)c1F` [Example 82, 2,6-Difluoro-3-(nonyloxy)benzenecarboxamide]: the MIC (with Bacillus subtilis 168CA; in assay [1]) was less than 8 µg/mL throughout.

Regarding `CCCCCCOc1cccc(C(N)=O)c1O` [Example 166, 2-Hydroxy-3-Hexoxy-benzamide], the MIC (in the assay with Bacillus subtilis 168CA; in assay [1]) was more than 64 µg/mL each time.
